Data on three molecules can be found in US20070015742A1, “Porphyrin derivatives” (priority 2003, published 2007).

The conditions of data set [1]: in toluene, reference standard whose quantum yield is known; cited from earlier work.
A short description of data set [2]: molar extinction spectrum in THF. In kind it is physicochemical. From the text:
The absorbance peaks and molar extinction coefficients are shown below in Table 2.
The Absorbance peaks and molar extinction coefficients are shown below in Table 3.
The absorbance peaks and molar extinction coefficients are shown below in Table 4.

The test system of data set [3] is mouse colon adenocarcinoma cell line Colo26. Particulars: colo26 cells; for cell kill on irradiation: irradiation with 100 J cm^-2 white light; for photodynamic activity: 100 J cm^-2 white light.
Procedure: Evaluation of in vitro Photodvnamic Tumour Cell Kill
The non-metastasing mouse colon adenocarcinoma cell line Colo26 was maintained in monolayer culture in RPMI 1640 glutamax medium supplemented with 10% heat-inactivated foetal calf serum, 100 U ml^−1 penicillin and 100 mg ml^−1 streptomycin. Cells grown to confluence were separated by trypsinisation to produce a suspension of 1.39 million cells per ml. A sample of 2.16 ml of this cell suspension was diluted to 50 ml with CM10 medium to give suspensions of 60,000 cells per ml. 100 μl of this suspension containing 6000 cells was added to each of the 60 inner wells of two 96-well culture plates. The outer wells of each plate were filled with sterile water. This was done to avoid errors resulting from the loss by evaporation of the rather small volumes of cell culture medium. The cells were incubated at 37° C. and 5% CO2 in a humidified incubator for 24 hours. A further 100 μl of cell culture medium containing a range of concentrations of each photosensitiser and tetrahydoflran (THF) vehicle was then added to groups of six wells. Tetrahydrofuran was chosen as solvent because it is relatively freely miscible with water and a pilot experiment had shown that incubation of cells for 48 hours with 0.5-1% THF had no effect on cell growth. An initial stock solution of 200 μl of each photosensitiser in THF was prepared and this solution used to prepare a series of sub-stock solutions in cell culture medium CM10 for addition to the tumour cell cultures.
After 20 hours of incubation with the cells, the medium containing the sensitiser and vehicle was removed and the cells washed once with buffer solution at 37° C. before the addition of fresh cell culture medium without photosensitiser or vrhicle. One of the two cell culture plates was then protected from light with aluminium foil and placed alongside the other plate which was irradiated with 100 joules cm^−2 of full-spectrum white light from an Applied Photophysics Irradiator. The light was delivered to the base of the 96-well plate through a glass platform (which served to filter short-wavelength ultraviolet light) as a 20 cm diameter spot. After irradiation both plates were returned to the incubator for a further 18 hours.
Cell growth inhibition following incubation with each photosensitiser and irradiation was determined using the European Union approved Neutral Red photocyiotoxicity protocol (Annexe II to Directive 2000/33/EC) adapted for visible light irradiation and the use of colo26 cells.
Where [4] appears, read: concentrations of 0.5 μM and above.

Like-named read-outs stand apart in the source and are kept apart here.

For the molecule `C=Cc1c(C)c2cc3nc(c4c5[n-]c(cc6nc(cc1[n-]2)C(C)=C6CC)c(C)c5C(=O)[C@@H]4C(=O)OC)[C@@H](CCC(=O)OC/C=C(\C)CCC[C@H](C)CCC[C@H](C)CCCC(C)C)[C@@H]3C.[Mg+2]` [chlorophyll A], in data set [1], the “singlet oxygen quantum yield of reference” value was 0.6.

With `CCCCCCCCCCCCCCCCOc1ccc(C2=C3C=CC(=N3)C(c3ccccc3)=c3ccc([nH]3)=CC3=NC(=CC4=CC=C2S4)C=C3)cc1` [porphyrin (8), 5-(4-hexadecyloxyphenyl)-10-(phenyl)-15,20-H-21-thiaporphryin], the “molar extinction coefficient ε” value in data set [2] (peak wavelength 418, THF) is recorded as 300,000 1 mol^−1 cm^−1; in data set [2] (peak wavelength 502, THF), 29,800 1 mol^−1 cm^−1; in data set [2] (peak wavelength 532, THF), 5,300 1 mol^−1 cm^−1; in data set [2] (peak wavelength 606, THF), 4,900 1 mol^−1 cm^−1; in data set [2] (peak wavelength 668, THF) it was 3,000 1 mol^−1 cm^−1. Also, the “cell kill on irradiation” value is given as “approaching total cell kill” in data set [3] (2 μM and above); “substantial cell kill” in data set [3] (setting [4]). Also, the photodynamic activity entry in data set [3] is given as “photodynamic activity”.

For `CCCCCCCCCCCCCCCCOc1ccc(-c2c3nc(c(-c4ccccc4)c4ccc([nH]4)c(C#Cc4ccccn4)c4nc(c(C#Cc5ccccn5)c5ccc2s5)C=C4)C=C3)cc1` [porphyrin (10), 5-(4-hexadecyloxyphenyl)-10-(phenyl)-15,20-(2-ethynylpyridine)-21-thiaporphyrin], the “molar extinction coefficient ε” value in data set [2] (peak wavelength 456, THF) was 378,985 1 mol^−1 cm^−1; in data set [2] (peak wavelength 537, THF) it was 24,330 1 mol^−1 cm^−1; in data set [2] (peak wavelength 589, THF), 40,385 1 mol^−1 cm^−1; in data set [2] (peak wavelength 659, THF), 6,335 1 mol^−1 cm^−1; in data set [2] (peak wavelength 708, THF) it was 11,635 1 mol^−1 cm^−1; in data set [2] (peak wavelength 724, THF), 13,320 1 mol^−1 cm^−1. Further, the “cell kill on irradiation” value in data set [3] (2 μM and above) was “approaching total cell kill”; in data set [3] (setting [4]) it was “substantial cell kill”. Besides, the photodynamic activity result in data set [3] was “photodynamic activity”.
